Measured values as given in article PMC6253765, “Synthesis and Herbicidal Activities of Novel 4-(4-(5-methyl-3-arylisoxazol-4-yl)thiazol-2-yl)piperidyl Carboxamides and Thiocarboxamides” (Molecules, 2009).

Molecular target: T1, D1 protease (CtpA) (Spinacia oleracea, UniProt Q36792)
T1 construct: native spinach CtpA protein purified from spinach thylakoid
T1 sequence (Q36792 147-539): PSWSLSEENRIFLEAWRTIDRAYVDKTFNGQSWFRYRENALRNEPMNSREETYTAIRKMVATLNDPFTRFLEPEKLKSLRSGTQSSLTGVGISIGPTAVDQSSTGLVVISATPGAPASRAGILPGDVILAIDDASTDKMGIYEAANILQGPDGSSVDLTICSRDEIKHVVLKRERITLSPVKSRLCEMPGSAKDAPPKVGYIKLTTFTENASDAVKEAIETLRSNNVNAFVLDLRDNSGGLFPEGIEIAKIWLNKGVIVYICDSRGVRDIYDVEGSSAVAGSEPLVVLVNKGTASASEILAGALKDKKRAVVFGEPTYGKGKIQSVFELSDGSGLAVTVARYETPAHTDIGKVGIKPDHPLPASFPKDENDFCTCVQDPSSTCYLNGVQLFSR
Test: HPLC assay of cleavage of S24 peptide substrate; Dixon plot
Assay type: biochemical

- Ki: 1300 nM
SMILES: CCCCNC(=O)N1CCC(c2nc(-c3c(-c4ccccc4F)noc3C)cs2)CC1 [4m, N-butyl-4-(4-(3-(2-fluorophenyl)-5-methylisoxazol-4-yl)thiazol-2-yl)piperidine-1-carboxamide]
